Entries after “also recorded” stand apart in the source; their conditions may differ.
Test system: rats having DREZs avulsed at T13/L1
Assay: Allodynia (von Frey test) in rat T13/L1 DREZ avulsion model of central neuropathic pain
Type: in vivo
Procedure: Rats were anesthetized using isoflurane. Under aseptic condition, the skin was incised in the midline along the posterior thoracolumbar region. The paravertebral muscles were retracted laterally to expose the posterior aspect of the spinal laminae. Laminectomies were performed and the dura mater then incised along the midline to expose the dorsal rootlets of T13 and L1. The dorsal rootlets of T13 and L1 were then avulsed out of the spinal cord on the left side using micronstrumentation. Hemostasis was obtained and a layer of gelfoam placed over the dura. The wound was closed in layers. Perioperative antibiotics were administered in prophylaxis against infection. Subject rats were tested for allodynia of the hindpaws with the von Frey hair test, beginning day one post surgery and continuing daily over the subsequent four weeks. Rat animal model was generated similar to above. In one experiment, DREZ avulsion was unilateral (FIG. 2). In one experiment, DREZ avulsion was bilateral (FIG. 3). Ibudilast was delivered intrathecally daily in a corn oil carrier, with sham controls receiving only the corn oil. […] AV411 was administered to animals avulsed at the T13 and L1 dorsal root entry zones. The compound AV411 was administered to animals subject to the T13 and L1 hind paws. […] The reversal begins after 5-6 injections and continues to reverse behavior until day 33. The contralateral paw began to resolve at day 28 and the ipsilateral paw was still sensitive at day 33. […] Response thresholds on the von Frey test were recorded prior to and across a timecourse after avulsion surgery. Beginning on Day 12 post-surgery, rats (n=4/group) received once daily s.c. injections of either the glial activation inhibitor AV411/Ibudilast (Sigma; 5-mg/kg or 10-mg/kg) or equivolume vehicle (corn oil; 0.5-ml/kg). Daily drug treatment and intermittent behavioral testing continued through 33 days after surgery.

For `CC(C)C(=O)c1c(C(C)C)nn2ccccc12` [AV411, 2-methyl-1-(2-propan-2-ylpyrazolo[1,5-a]pyridin-3-yl)propan-1-one], the “onset of reversal of allodynia” value (once daily s.c. 5-mg/kg or 10-mg/kg from Day 12 post-surgery) was 5-6 injections, the “effect on allodynia induced by unilateral T13/L1 dorsal root avulsion (von Frey test)” value (once daily s.c. 5-mg/kg or 10-mg/kg from Day 12 post-surgery through day 33) was “reversed allodynia; also recorded: induces bilateral mechanical allodynia; also recorded: reverses bilateral allodynia” and the “comparison of the 5 mg and 10 mg dose on allodynia” value (once daily s.c. 5-mg/kg vs 10-mg/kg) was “not differences between the 5 mg and 10 mg dose”. The “day until which reversal of behavior continues” value (once daily s.c. from Day 12 post-surgery, days after surgery) was no more than 33 days and the “effect on allodynia in the model” value (unilateral (FIG. 2) or bilateral (FIG. 3) DREZ avulsion, delivered intrathecally daily in corn oil carrier) was “decreases allodynia”.
